Measurements reported in patent publication US6609014B1, “Use of PDT to inhibit intimal hyperplasia” (QLT Inc., priority 1999, dated 2003).
Several values for one entry are separate records, joined by “and”; a condition that tells them apart may be missing. Equal entries are not always repeated.

How the values were obtained:
[1] = system: intimal hyperplasia in the vein of AV fistulae between the carotid artery and internal jugular vein; experiment: One-month dose optimization: PDT of bilateral end-to-side AV fistulae, morphometric analysis of vein cross-sections; format: in vivo, Domestic swine; parameters: key to PDT-treated fistula thrombosed (T) / PDT-treated fistula thrombosed: T = thrombosed; settings: for Percent Lumen Compromised by Intimal Hyperplasia, PDT, Block #1 / Percent Lumen Compromised by Intimal Hyperplasia, PDT, Block #2 / Percent Lumen Compromised by Intimal Hyperplasia, Control-PDT, Block #1, Mean / Percent Lumen Compromised by Intimal Hyperplasia, Control-PDT, Block #2, Mean / Percent Lumen Compromised by Intimal Hyperplasia, PDT, Block #2, Mean / Percent Lumen Compromised by Intimal Hyperplasia, PDT, Block #1, Mean / PDT-treated fistula thrombosed (T) / Percent Lumen Compromised by Intimal Hyperplasia, Control-PDT, Block #1 / Percent Lumen Compromised by Intimal Hyperplasia, Control-PDT, Block #2: 40 min OR lamp light
Excerpt: Domestic swine (male, 40-50 kg) were used for experiments related to the present invention. Extensive research has been performed to characterize the changes leading to intimal hyperplasia (IH) in the arteries and veins of swine, which closely resemble those in humans (22). AV fistulae were created in several pigs to confirm that measurable IH developed in the vein, just distal to the anastomoses, within one month (FIG. 1A).
Pigs were recovered and left for four weeks at which time they were exsanguinated and perfused with 10% formalin. The fistulae were surgically excised for processing and wax embedding for histology (FIGS. 1A and 2). Wax blocks containing the fistulae were cut to provide sections containing a cross-section of the anastomoses, including the artery and vein distal to the sutures (FIGS. 1A, 1B, and 3).
A porous balloon catheter was introduced into the lumen of veins to deliver either 2 mL of BPD-MA (diluted in 5% dextrose in water) or 5% dextrose in water (control), at a delivery pressure of 2 mm Hg. Two minutes later, the photosensitizer (or dextrose) was rinsed out with heparinized saline before light exposure.
The adventitia of the vein was exposed to the operating room (OR) lamp light for 40 minutes (a combination of incandescent bulbs and fluorescence tubes—approximately 1 J/cm^2).
Measurements and observations were made by morphometric analysis of cross-sections of fistulae stained with Verhoeff's elastic to assess the integrity of the vessel wall and also clearly demarcate the internal elastic lamina (IEL) for the measurement of IH. Areas within the lumen and those circumscribed by the internal elastic lamina (IEL) and the external elastic lamina (EEL) were measured directly using the Optimas (Optimas Corporation, Bothell, Wash., USA) program. The areas of the intima and the media were calculated by subtraction: intimal area equals the […], and medial area equals EEL area minus IEL area.
Statistical analysis was conducted using the two tailed t-Test (two-sample assuming unequal variances) for comparisons between groups of PDT-treated and control fistulae and paired t-tests for paired comparisons of PDT-treated and control fistulae.
End-to-side AV fistulae between the carotid artery and internal jugular vein were treated at four different BPD-MA doses (0.015, 0.15, 0.5 & 1.5 mg/2 mL) and exposed to 40 minutes of operating room (OR) lamp and ambient light to determine the optimal doses required to inhibit IH while causing minimal damage to the vein wall. Bilateral AV fistulae were created. For example, one side was treated with saline and 40 min. OR lamp light, while the other side was treated with BPD-MA (0.015 mg/2 mL or the other doses) and 40 min. OR lamp light after creating the anastomoses. At least six pigs were treated using each BPD-MA dose and the 40 minutes OR lamp light delivery system.
Optimization of PS and radiation dose was performed. Bilateral end-to-side AV fistula between the carotid artery and jugular vein were created in 29 pigs. Animals were sacrificed 4 weeks after PDT, and the fistulae were surgically excised and processed for histology. Computer-assisted measurement of the lumen area and,the area delimited by the internal elastic lamina (IEL) and external elastic lamina (EEL) was performed on 5 sections of the vein. The IH was calculated by subtracting the lumen area from the […]. Medial hyperplasia was calculated by subtracting the IEL area from the EEL area.
For each fistula, the percent of the lumen compromised by the intima hyperplasia (%LCIH=IEL−Lumen/IEL) was calculated for the first two complete blocks from the tip of the anastomosis, since IH is most often observed clinically within 1 cm of the anastomosis. Differences in the % LCIH between control and treated sides were averaged for each dose group. Results are presented in Tables 1 a and 1b as well as illustrated in FIGS. 2 and 3.

[2] = system: endothelial lining of the vein lumen; experiment: von Willebrand factor immunostaining of AV fistula veins 48 hours after PDT; format: in vivo, Domestic swine; settings: low-dose PDT
Excerpt: In Example 4, the cell content of the vein wall was also examined using immunohistochemical techniques to detect SMCs (mouse anti-human ax-smooth muscle actin, clone 1A4 (Dako, Mississauga, Canada)), macrophages (mouse monoclonal anti-human monocyte/macrophage, clone MAC 387 (Serotec Inc.), T cells (Rabbit anti-human CD3 with Neo marker), and endothelial cells (rabbit polyclonal anti-human von Willebrand Factor (Dako, Mississauga, Canada)). SMCs were counted using the Optimas image analysis program and macrophages were counted manually using Image Pro Plus 3 (Media Cybernetics, Silver Spring, Md., USA).
For the purposes of determining the early cellular effects of PDT on the vein, bilateral AV fistulae were created in six pigs and treated sides were given 0.15 mg BPD-MA (0.15 mg/2 mL) and 40 minutes OR light. After 48 hours these pigs were sacrificed and the fistulae were recovered and processed for histological evaluation. This is not enough time for IH to have developed, but the cellular activation which leads to IH may be detectable. […] Immunocytochemistry for the proliferating cell nuclear antigen (PCNA) was used to assess cell proliferation in the tissue (Table 3).
Immunocytochemical staining for von Willebrand factor was performed to characterize the effects of PDT on the endothelial lining of the vein lumen. […]

[3] = 0.015 mg BPD-MA/2 mL into vein lumen, one month, individual pigs
[4] = 0.015 mg BPD-MA/2 mL, one month, group mean
[5] = 0.015 mg BPD-MA/2 mL, one month, individual pigs
[6] = 0.15 mg BPD-MA, OR lamp, one month, group mean
[7] = 0.15 mg BPD-MA, OR lamp, one month, individual pigs
[8] = 0.15 mg BPD-MA/2 mL into vein lumen, one month, individual pigs
[9] = 0.15 mg BPD-MA/2 mL, one month, group mean
[10] = 0.15 mg BPD-MA/2 mL, one month, individual pigs
[11] = 0.15 mg BPD-MA, one month, relative to control mean
[12] = 0.15 mg BPD-MA, one month, treated vs control fistulae
[13] = 0.5 mg BPD-MA/2 mL into vein lumen, one month, individual pigs
[14] = 0.5 mg BPD-MA/2 mL, one month, group mean
[15] = 0.5 mg BPD-MA/2 mL, one month, individual pigs
[16] = 1.5 mg BPD-MA/2 mL into vein lumen, one month, individual pigs
[17] = 1.5 mg BPD-MA/2 mL, one month, group mean
[18] = 1.5 mg BPD-MA/2 mL, one month, individual pigs

In the case of “benzoporphyrin derivative monoacid ring A [BPD-MA]”, the “Percent Lumen Compromised by Intimal Hyperplasia, PDT, Block #1” value [1, 3] is reported as 3.1% and 21.3% and 9% and 30.3% and 3.4% and 2.2%, the “Percent Lumen Compromised by Intimal Hyperplasia, PDT, Block #2” value [1, 3] is reported as 2.4% and 2.3% and 5% and 13% and 8.6% and 1.8% and the “Percent Lumen Compromised by Intimal Hyperplasia, Control-PDT, Block #1, Mean” value [1, 4] is reported as 1.5%. For the same substance, the “Percent Lumen Compromised by Intimal Hyperplasia, Control-PDT, Block #2, Mean” value [1, 4] was 2.9%, the “Percent Lumen Compromised by Intimal Hyperplasia, PDT, Block #2, Mean” value ([1]; 0.015 mg BPD-MA/2 mL, one month, group mean, p = 0.36 vs control) was 5.5% and the “Percent Lumen Compromised by Intimal Hyperplasia, PDT, Block #1, Mean” value ([1]; 0.015 mg BPD-MA/2 mL, one month, group mean, p = 0.39 vs control) was 11.6%. The “PDT-treated fistula thrombosed (T)” value [1, 5] was “T”, the “Percent Lumen Compromised by Intimal Hyperplasia, Control-PDT, Block #1” value [1, 5] was −0.2% and 10.2% and −4% and −27.2% and 24.9% and 5.3% and the “Percent Lumen Compromised by Intimal Hyperplasia, Control-PDT, Block #2” value [1, 5] was −0.2% and 27.1% and −2% and −6.5% and −1.9% and 0.9%. For the same substance, the “Change in amount of IH between control and treated veins” value ([1]; 0.015 mg BPD-MA, one month) was “little change”, the “Percent Medial Hyperplasia, PDT, Block #1, Mean” value [1, 6] was 10.0% and the “Percent Medial Hyperplasia, PDT, Block #2, Mean” value [1, 6] was 11.5%. For the same substance, the “PDT-treated fistula thrombosed” value [1, 7] was “T”, the “Percent Medial Hyperplasia, PDT, Block #1” value [1, 7] was 5.9% and 15.3% and 6.2% and 12.5% and 9.8% and the “Percent Medial Hyperplasia, PDT, Block #2” value [1, 7] was 10.3% and 5.7% and 18.2% and 9.8% and 13.7%. The “Percent Lumen Compromised by Intimal Hyperplasia, PDT, Block #1” value [1, 8] was 7.1% and 19.3% and 4.6% and 9.2% and 6.9% and 21.1%, the “Percent Lumen Compromised by Intimal Hyperplasia, PDT, Block #2” value [1, 8] was 7% and 9.1% and 6.7% and 2.5% and 3.6% and 8.6% and the “Percent Lumen Compromised by Intimal Hyperplasia, Control-PDT, Block #1, Mean” value [1, 9] was 7.0%. The “Percent Lumen Compromised by Intimal Hyperplasia, Control-PDT, Block #2, Mean” value [1, 9] was 9.25%, the “Percent Lumen Compromised by Intimal Hyperplasia, PDT, Block #2, Mean” value ([1]; 0.15 mg BPD-MA/2 mL, one month, group mean, p = 0.06 vs control) was 6.3% and the “Percent Lumen Compromised by Intimal Hyperplasia, PDT, Block #1, Mean” value ([1]; 0.15 mg BPD-MA/2 mL, one month, group mean, p = 0.095 vs control) was 11.4%. For the same substance, the “PDT-treated fistula thrombosed (T)” value [1, 10] was “T”, the “Percent Lumen Compromised by Intimal Hyperplasia, Control-PDT, Block #1” value [1, 10] was 24.2% and −1.5% and 8.2% and −2.9% and the “Percent Lumen Compromised by Intimal Hyperplasia, Control-PDT, Block #2” value [1, 10] was 2.7% and 14.8% and 0.5% and 19%. For the same substance, the “Relative reduction of intimal hyperplasia (mean PDT-induced decrease), first block” value [1, 11] was 38%, the “Relative reduction of intimal hyperplasia (mean PDT-induced decrease), second block” value [1, 11] was 55% and the “Reduction in % LCIH, first block” value [1, 12] was 7.0%. The “Reduction in % LCIH, second block” value [1, 12] was 9.3%, the “Difference in medial thickness between PDT-treated and control samples, block 2” value ([1]; 0.15 mg/2 mL, one month) was “little difference” and the “Difference in medial thickness between PDT-treated and control samples, first block” value ([1]; 0.15 mg/2 mL, one month) was 44%. The “Percent Lumen Compromised by Intimal Hyperplasia, PDT, Block #1” value [1, 13] was 18.1% and 16.6% and 32.0%, the “Percent Lumen Compromised by Intimal Hyperplasia, PDT, Block #2” value [1, 13] was 11.2% and 6.8% and 3.4% and the “Percent Lumen Compromised by Intimal Hyperplasia, Control-PDT, Block #1, Mean” value [1, 14] was 0.5%. The “Percent Lumen Compromised by Intimal Hyperplasia, Control-PDT, Block #2, Mean” value [1, 14] was 0.9%, the “Percent Lumen Compromised by Intimal Hyperplasia, PDT, Block #1, Mean” value [1, 14] was 22.2% and the “Percent Lumen Compromised by Intimal Hyperplasia, PDT, Block #2, Mean” value [1, 14] was 7.1%. For the same substance, the “PDT-treated fistula thrombosed (T)” value [1, 15] was “T”, the “Percent Lumen Compromised by Intimal Hyperplasia, Control-PDT, Block #1” value [1, 15] was −13.0% and 5.1% and 9.4% and the “Percent Lumen Compromised by Intimal Hyperplasia, Control-PDT, Block #2” value [1, 15] was −8.3% and 2.1% and 9.0%. For the same substance, the “Difference in IH between treated and control fistulae” value ([1]; 0.5 mg BPD-MA, one month) was “Little difference”, the “Percent Lumen Compromised by Intimal Hyperplasia, PDT, Block #1” value [1, 16] was 19.4% and 17.4% and 21.6% and 41.8% and 12.7% and the “Percent Lumen Compromised by Intimal Hyperplasia, PDT, Block #2” value [1, 16] was 43.0% and 1.7% and 11.7% and 53.8% and 13.9%. For the same substance, the “Percent Lumen Compromised by Intimal Hyperplasia, Control-PDT, Block #1, Mean” value [1, 17] was −14.9%, the “Percent Lumen Compromised by Intimal Hyperplasia, Control-PDT, Block #2, Mean” value [1, 17] was −23.6% and the “Percent Lumen Compromised by Intimal Hyperplasia, PDT, Block #1, Mean” value [1, 17] was 22.6%. The “Percent Lumen Compromised by Intimal Hyperplasia, PDT, Block #2, Mean” value [1, 17] was 24.8%, the “PDT-treated fistula thrombosed (T)” value [1, 18] was “T” and the “Percent Lumen Compromised by Intimal Hyperplasia, Control-PDT, Block #1” value [1, 18] was −0.7% and −13.7% and −38.9% and −6.2%. For the same substance, the “Percent Lumen Compromised by Intimal Hyperplasia, Control-PDT, Block #2” value [1, 18] was −37.9% and 5.1% and −49.9% and −11.8%, the “Effect on IH” value ([1]; 1.5 mg dose BPD-MA, one month) was “appeared to induce IH” and the “Effect on development of IH, high doses” value ([1]; PDT with high doses of BPD-MA) was “either did not modulate the development of IH or actually induced IH”. For the same substance, the “Thrombogenicity of vessel wall, high doses” value ([1]; PDT with high doses of BPD-MA, one month) was “appeared to render the vessel wall more thrombogenic”, the “Percent IH in PDT-treated vs control fistulae, responders only” value ([1]; all animals 0.015 to 1.5 mg/2 ml BPD-MA, excluding those with less than 10% IH in control fistulae, Block 1 p=0.03, Block 2 p=0.02) was “significantly less” and the “Average one-month thrombosis incidence, PDT-treated fistulae” value ([1]; all doses (0.015-1.5 mg/2 mL BPD-MA), control fistulae 26.0%) was 26.6%. The “Effect on IH at the anastomosis of arteriovenous grafts, low doses” value ([1]; low doses (0.15 mg/2 ml) locally delivered BPD-MA, ambient light from operating room lamps) was “resulted in the reduction of IH”, the “Incidence of thrombosis, low-dose PDT” value ([1]; low-dose PDT, one month) was “not associated with an increase in the incidence of thrombosis” and the “Effect of PDT on medial thickening” value ([1]; one month) was “did not affect medial thickening”. The “Number of fistulae that thrombosed vs drug dose” value ([1]; one month, 0.015-1.5 mg/2 mL) was “correlated roughly with increasing drug dose”, the “Statistical significance of differences in intimal thickening between PDT-treated and control veins” value ([1]; one month, marked with some doses (0.15 mg)) was “not statistically significant” and the “Damage to endothelial cell lining of treated veins” value [2] was “did not appear to damage the endothelial cell lining”.
